The nature of data set [1]: Metabolic stability in mouse liver microsomes assessed as compound remaining at 1 uM after 30 mins LC-MS analysis. Type of data set: ADME, Microsome. To be noted: liver microsomes, read-out: Stability.
Data set [2] can be described thus: Metabolic stability in human liver microsomes assessed as compound remaining at 1 uM after 30 mins LC-MS analysis. It is filed as ADME, Microsome. To be noted: liver microsomes, read-out: Stability. On the technique in general: Liver microsomes are vesicles of endoplasmic reticulum, rich in cytochrome P450 enzymes.
Data set [3] deals with A2780. The data set is described as follows: cells. The conditions noted are these: Homo sapiens, A2780, 72 h.
The target of data set [4] is Nicotinamide phosphoribosyltransferase (Homo sapiens, UniProt P43490).

SMILES strings stand for the structures.

Chain of Nicotinamide phosphoribosyltransferase (P43490 whole entry): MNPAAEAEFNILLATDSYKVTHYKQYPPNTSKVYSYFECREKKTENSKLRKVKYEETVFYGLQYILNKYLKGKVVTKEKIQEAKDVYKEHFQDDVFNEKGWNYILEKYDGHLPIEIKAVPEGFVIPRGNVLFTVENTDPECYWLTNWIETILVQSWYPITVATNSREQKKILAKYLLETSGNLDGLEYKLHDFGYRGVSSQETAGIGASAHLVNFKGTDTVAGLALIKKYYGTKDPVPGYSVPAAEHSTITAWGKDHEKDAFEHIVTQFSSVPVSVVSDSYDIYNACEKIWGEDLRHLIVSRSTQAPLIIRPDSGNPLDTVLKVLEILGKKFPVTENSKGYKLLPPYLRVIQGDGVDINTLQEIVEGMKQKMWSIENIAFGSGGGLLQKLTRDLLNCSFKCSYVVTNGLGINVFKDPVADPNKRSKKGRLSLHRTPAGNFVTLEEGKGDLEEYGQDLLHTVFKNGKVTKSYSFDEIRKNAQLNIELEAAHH

In the case of `O=C(NCc1ccc(S(=O)(=O)N2CCCCC2)cc1)c1ccc2nccn2c1`, the remaining at 0.5 h, 1 µM in data set [1] amounted to 0.28%; in data set [2] it was 57%. The IC50 in data set [3] worked out at 6 nM; in data set [4], 28 nM.

Turning to `CC(NC(=O)c1cc2cnccc2[nH]1)c1ccc(S(=O)(=O)N2CCCCC2)cc1` (stereo unspecified), the remaining at 0.5 h, 1 µM in data set [1] was determined as 0.65%; in data set [2] it was 34%. In addition, the IC50 in data set [3] and in data set [4] was > 10000 nM throughout.

For the compound `O=C(NCc1ccc(S(=O)(=O)c2ccc(F)cc2)cc1)c1cc2cnccc2[nH]1`, the remaining at 0.5 h, 1 µM in data set [1] amounted to 72%; in data set [2], 91%. For the same compound, the IC50 was determined as 16 nM in data set [3] and 17 nM in data set [4].

As for `O=C(NCc1ccc(S(=O)(=O)c2ccccc2)cc1)c1cc(-c2cccnc2)no1`, the remaining at 0.5 h, 1 µM in data set [1] was 66%; in data set [2], 69%. In addition, the results for the IC50 in data set [3] and in data set [4] were > 10000 nM and 41 nM, respectively.

With `O=C(NCc1ccc(S(=O)(=O)c2ccccc2)cc1)c1cnc2nccn2c1`, the results for the remaining at 0.5 h, 1 µM in data set [1] and in data set [2] were 30% and 60%, respectively. In data set [3], this compound had a concentration for half-maximal inhibition (IC50) of 68 nM.

As to `O=C(NCc1ccc(S(=O)(=O)N2CCCCC2)cc1)c1cc2cnccc2o1`, the remaining at 0.5 h, 1 µM in data set [1] stood at 4.6%; in data set [2] it was 46%. In addition, the IC50 turned out to be 1500 nM in data set [3] and 140 nM in data set [4].

Turning to `O=C(NCc1ccc(S(=O)(=O)c2ccccc2)cc1)c1cc2cnccc2[nH]1`, the remaining at 0.5 h, 1 µM turned out to be 54% in data set [1] and 75% in data set [2].

For `O=C(NCc1ccc(S(=O)(=O)c2cc(F)cc(F)c2)cc1)c1cc2ccncc2o1`, the results for the remaining at 0.5 h, 1 µM in data set [1] and in data set [2] were 12% and 77%, respectively.

As to `O=C(NCc1ccc(S(=O)(=O)c2ccccc2)cc1)c1ccc2cnccc2c1`, the remaining at 0.5 h, 1 µM in data set [1] was determined as 10%; in data set [2], 31%. Besides, the IC50 in data set [3] and in data set [4] was > 10000 nM in each case.

As for `O=C(NCc1ccc(S(=O)(=O)c2cccc(C(F)(F)F)c2)cc1)c1cnc2nccn2c1`, the remaining at 0.5 h, 1 µM in data set [1] was determined as 27%; in data set [2], 41%. Besides, the IC50 in data set [3] was 2 nM; in data set [4] it was 1 nM.

`O=C(NCc1ccc(S(=O)(=O)N2CCCCC2)cc1)c1cnc2nccn2c1`: the remaining at 0.5 h, 1 µM worked out at 0.28% in data set [1] and 64% in data set [2]. For the same compound, the IC50 in data set [3] came out at 130 nM; in data set [4], 3 nM.

As for `O=C(NCc1ccc(S(=O)(=O)c2ccccc2)cc1)c1nc2cnccc2[nH]1`, the remaining at 0.5 h, 1 µM was 7.3% in data set [1] and 73% in data set [2]. In data set [3], this compound returned an IC50 of 5400 nM.

On to `O=C(NCc1ccc(S(=O)(=O)c2ccccc2)cc1)c1cc2ncccc2s1`, for which the results for the remaining at 0.5 h, 1 µM in data set [1] and in data set [2] were 1.6% and 81%, respectively. For the same compound, the IC50 is > 10000 nM in data set [3] and 400 nM in data set [4].

For the compound `O=C(NCc1ccc(S(=O)(=O)c2ccccc2)cc1)c1ccc2nccn2c1`, the results for the remaining at 0.5 h, 1 µM in data set [1] and in data set [2] were 18% and 77%, respectively. For the same compound, the IC50 in data set [3] was determined as 13 nM; in data set [4], 18 nM.

In the case of `O=C(NCc1ccc(S(=O)(=O)N2CCCCC2)cc1)c1ccn2cncc2c1`, the figures for the remaining at 0.5 h, 1 µM in data set [1] and in data set [2] were 1% and 54%, respectively. The IC50 is > 10000 nM in data set [3] and 1700 nM in data set [4].

In the case of `O=C(NCc1ccc(S(=O)(=O)c2ccccc2)cc1)c1c[nH]c2ccncc12`, the remaining at 0.5 h, 1 µM in data set [1] was 45%; in data set [2] it was > 99%. The same compound yielded an IC50 in data set [3] of 2100 nM.

For `O=C(NCc1ccc(S(=O)(=O)c2cccc(F)c2)cc1)c1cc2cnccc2[nH]1`, the values for the remaining at 0.5 h, 1 µM in data set [1] and in data set [2] were 44% and 79%, respectively. The IC50 was determined as 11 nM in data set [3] and 5 nM in data set [4].

`O=C(NCCc1ccc(S(=O)(=O)c2ccccc2)cc1)c1cc2cnccc2[nH]1`: the remaining at 0.5 h, 1 µM in data set [1] stood at 31%; in data set [2], 64%. For the same compound, the figures for the IC50 in data set [3] and in data set [4] were 9100 nM and 970 nM, respectively.

As to `O=C(NCc1ccc(S(=O)(=O)c2ccccc2)cc1)c1cc2ccncc2s1`, the remaining at 0.5 h, 1 µM was found to be 21% in data set [1] and 48% in data set [2]. Besides, the IC50 in data set [3] worked out at 14 nM; in data set [4], 7 nM.

`Cn1c(C(=O)NCc2ccc(S(=O)(=O)c3ccccc3)cc2)cc2cnccc21`: the remaining at 0.5 h, 1 µM in data set [1] worked out at 34%; in data set [2] it was 78%. In data set [3], the IC50 is > 10000 nM.

With `O=C(NCc1ccc(S(=O)(=O)c2ccccc2C(F)(F)F)cc1)c1cc2cnccc2[nH]1`, the remaining at 0.5 h, 1 µM in data set [1] was determined as 41%; in data set [2], 52%. For the same compound, the IC50 amounted to 25 nM in data set [3] and 24 nM in data set [4].

Regarding `O=C(NCc1ccc(S(=O)(=O)N2CCCCC2)cc1)c1ccn2ccnc2c1`, the IC50 in data set [3] is > 10000 nM; in data set [4], 1800 nM.

For `O=C(NCc1ccc(S(=O)(=O)c2ccc(F)c(F)c2)cc1)c1cc2cnccc2[nH]1`, the remaining at 0.5 h, 1 µM in data set [1] was 58%; in data set [2] it was 100%. For the same compound, the IC50 in data set [3] worked out at 14 nM; in data set [4] it was 10 nM.

Take `O=C(NCc1ccc(S(=O)(=O)c2ccc(C(F)(F)F)cc2)cc1)c1cc2cnccc2[nH]1`: the remaining at 0.5 h, 1 µM in data set [1] amounted to 87%; in data set [2], 82%. The values for the IC50 in data set [3] and in data set [4] were 26 nM and 16 nM, respectively.

As to `O=C(NCc1ccc(S(=O)(=O)c2ccc(N3CCOCC3)nc2)cc1)c1cc2ccncc2s1`, the remaining at 0.5 h, 1 µM in data set [1] and in data set [2] was 23% throughout. In addition, the IC50 in data set [3] stood at 1 nM; in data set [4], 3 nM.

`O=C(NCc1ccc(S(=O)(=O)N2CCCCC2)cc1)c1ccc2nc[nH]c2c1`: the remaining at 0.5 h, 1 µM in data set [1] turned out to be 16%; in data set [2] it was 53%. Moreover, the 50% inhibitory concentration (IC50) in data set [3] is > 10000 nM; in data set [4] it was 310 nM.

For `O=C(NCc1ccc(S(=O)(=O)c2ccccc2)cc1)c1cc2ccncc2o1`, the results for the remaining at 0.5 h, 1 µM in data set [1] and in data set [2] were 30% and 86%, respectively.

Consider `O=C(NCc1ccc(S(=O)(=O)c2ccccc2)cc1)c1ccc2nncn2c1`, for which the remaining at 0.5 h, 1 µM is 47% in data set [1] and 96% in data set [2]. Also, the figures for the IC50 in data set [3] and in data set [4] were > 10000 nM and 370 nM, respectively.

Consider `O=C(NCc1ccc(S(=O)(=O)N2CCCCC2)cc1)c1cc2ccncc2o1`, for which the remaining at 0.5 h, 1 µM in data set [1] came to 0.14%; in data set [2], 56%. This compound also had an IC50 in data set [3] of 29 nM.

On to `Cc1cccc(S(=O)(=O)c2ccc(CNC(=O)c3cc4cnccc4[nH]3)cc2)c1`, for which the results for the remaining at 0.5 h, 1 µM in data set [1] and in data set [2] were 32% and 49%, respectively. The IC50 in data set [3] came out at 4 nM; in data set [4] it was 8 nM.

With `O=C(NCc1ccc(S(=O)(=O)c2cccc(C(F)(F)F)c2)cc1)c1ccc2nccn2c1`, the figures for the remaining at 0.5 h, 1 µM in data set [1] and in data set [2] were 17% and 26%, respectively. In addition, the IC50 in data set [3] was found to be 2 nM; in data set [4], 8 nM.

On to `O=C(NCc1ccc(S(=O)(=O)c2ccccc2)cc1)c1cc(-c2cccnc2)[nH]n1`, for which the remaining at 0.5 h, 1 µM was 42% in data set [1] and 67% in data set [2]. The IC50 in data set [3] is > 10000 nM; in data set [4], 43 nM.

For the compound `O=C(NCc1ccc(S(=O)(=O)c2ccccc2)cc1)c1ccc2cncn2c1`, the figures for the remaining at 0.5 h, 1 µM in data set [1] and in data set [2] were 1.7% and 65%, respectively. For the same compound, the IC50 was > 10000 nM in data set [3] and 1500 nM in data set [4].

Turning to `O=C(NCc1ccc(S(=O)(=O)c2ccccc2)cc1)c1nc2ccncc2s1`, the remaining at 0.5 h, 1 µM in data set [1] is 26%; in data set [2], 68%. The IC50 is > 10000 nM in data set [3] and 210 nM in data set [4].

`O=C(NCc1ccc(S(=O)(=O)c2cccnc2)cc1)c1cc2cnccc2[nH]1`: the remaining at 0.5 h, 1 µM in data set [1] was 20%; in data set [2], 75%. The compound further had an IC50 in data set [3] of 48 nM.

Turning to `O=C(Nc1ccc(S(=O)(=O)N2CCCCC2)cc1)c1cc2cnccc2[nH]1`, the IC50 in data set [3] and in data set [4] was > 10000 nM each time.

Turning to `O=C(NCc1ccc(S(=O)(=O)c2ccccc2)cc1)c1ccc2ccncc2c1`, the values for the remaining at 0.5 h, 1 µM in data set [1] and in data set [2] were 3.3% and 46%, respectively. In addition, the IC50 in data set [3] is > 10000 nM; in data set [4] it was 610 nM.

As for `O=C(NCc1ccc(S(=O)(=O)c2ccccc2)cc1)c1cn2ccnc2cn1`, the remaining at 0.5 h, 1 µM in data set [1] worked out at 13%; in data set [2] it was 87%. For the same compound, the IC50 is > 10000 nM in data set [3] and 150 nM in data set [4].

For `Cc1ccccc1S(=O)(=O)c1ccc(CNC(=O)c2cc3cnccc3[nH]2)cc1`, the figures for the remaining at 0.5 h, 1 µM in data set [1] and in data set [2] were 15% and 48%, respectively. For the same compound, the values for the IC50 in data set [3] and in data set [4] were 13 nM and 12 nM, respectively.

Turning to `O=C(NCc1ccc(S(=O)(=O)N2CCCCC2)cc1)c1cc2cnccc2[nH]1`, the remaining at 0.5 h, 1 µM in data set [1] is 1.9%; in data set [2], 44%. Also, half-maximal inhibition in data set [3] (IC50) was put at 10 nM.

`O=C(NCc1ccc(S(=O)(=O)c2ccccc2)cc1)c1ccc2ncncc2c1`: the results for the remaining at 0.5 h, 1 µM in data set [1] and in data set [2] were 3.7% and 24%, respectively. Also, the IC50 in data set [3] is > 10000 nM; in data set [4], 1900 nM.

`O=C(NCc1ccc(S(=O)(=O)N2CCCCC2)cc1)c1cc2ccncc2s1`: the remaining at 0.5 h, 1 µM turned out to be 0.2% in data set [1] and 4.4% in data set [2]. Further, the IC50 in data set [3] was 6 nM; in data set [4], 11 nM.

The IC50 is the concentration needed to halve the response being measured. The low end stands for greater potency in that assay, the high end for weaker potency in that assay.

Source of the values: ChEMBL document CHEMBL2417368, “Structure-based discovery of novel amide-containing nicotinamide phosphoribosyltransferase (nampt) inhibitors” (J Med Chem, 2013).
